Results on 11 compounds are retold here after ChEMBL document CHEMBL1201862, “PubChem BioAssay data set” (2004).

Each structure is given as a SMILES string.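 Exposure lasted 48 hours, with cells grown in 96-well plates and compounds tested at five concentrations. GI50 marks 50% less growth.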 Active and inactive are the calls of the source. No stated cut-off is given here; in the data, active = GI50 up to about 1.1 µM and inactive = higher.

Test systems include MDA-MB-435; OVCAR-3; T47D; SNB-19; SF-539; MDA-MB-231; LOX IMVI; HT-29; KM12; K562; MOLT-4; HCC 2998; COLO 205; SK-MEL-2; HL-60; 786-0; U-251; NCI-H23; BT-549; MCF7.
Common to all, as to assay: DTP human tumour cell line panel, 48 h

One may read the GI50 as the concentration that inhibits growth by half. For `Cc1n(CC(C)C)c2c([n+]1C)C(=O)c1ccccc1C2=O`, the GI50 was 0.143 µM (active) in the experiment with MDA-MB-435; < 0.01 µM (active) in the experiment with OVCAR-3; 0.0371 µM (active) in the experiment on T47D; 0.0716 µM (active) in the experiment with SNB-19; 0.0479 µM (active) with SF-539; 0.0486 µM (active) in the experiment with MDA-MB-231. Moreover, the GI50 in the experiment on LOX IMVI was 0.0746 µM (active); with HT-29 it was 0.0241 µM (active); in the experiment with KM12, 0.205 µM (active); in the experiment with K562, 0.431 µM (active); in the experiment on MOLT-4 it was 0.0478 µM (active); in the experiment on HCC 2998 it was 0.108 µM (active). For the same compound, the GI50 in the experiment on COLO 205 was < 0.0152 µM (active); with SK-MEL-2 it was 0.13 µM (active); with HL-60, 0.0405 µM (active); in the experiment with 786-0 it was 0.578 µM (active); with U-251, 0.0588 µM (active); with NCI-H23 it was 0.0374 µM (active). Besides, the GI50 in the experiment with BT-549 was 0.227 µM (active).
On to `CC(C)CC(NC(=O)C(COc1ccc([N+](=O)[O-])cc1)Cc1ccccc1)C(=O)Nc1ccccc1` (stereo not drawn), for which the GI50 with MDA-MB-435 was 14.1 µM (inactive); in the experiment with MCF7, 25.8 µM (inactive); with OVCAR-3 it was 41.1 µM (inactive); in the experiment on SNB-19, 7.76 µM (inactive); in the experiment with SF-539, 6.68 µM (inactive); with MDA-MB-231, 21.1 µM (inactive). The GI50 with LOX IMVI was 48.6 µM (inactive); with KM12, 5.85 µM (inactive); in the experiment with K562, 19.2 µM (inactive); in the experiment with MOLT-4 it was 22.1 µM (inactive); in the experiment on HCC 2998, 13.1 µM (inactive); in the experiment with COLO 205 it was 9.04 µM (inactive). Besides, the GI50 in the experiment on SK-MEL-2 was 21.7 µM (inactive); with HL-60 it was 10.3 µM (inactive); in the experiment on 786-0 it was 7.08 µM (inactive); with U-251, 12.6 µM (inactive); with NCI-H23 it was 13 µM (inactive); with BT-549, 10.9 µM (inactive).
As to `CCCCOCCOCCOC1=C(Cl)C(=O)c2c(O)ccc(O)c2C1=O`, the GI50 with MCF7 was 0.218 µM (active); with OVCAR-3 it was 0.877 µM (active); in the experiment on T47D, 0.488 µM (active); in the experiment on SNB-19, 1.77 µM (inactive); in the experiment on SF-539 it was 1.51 µM (inactive); in the experiment on MDA-MB-231 it was 0.488 µM (active). The GI50 in the experiment on LOX IMVI is 0.512 µM (active); with HT-29, 0.484 µM (active); with KM12, 1.79 µM (inactive); in the experiment with K562 it was 0.0419 µM (active); in the experiment with MOLT-4 it was 0.0138 µM (active); with HCC 2998, 2.1 µM (inactive). The GI50 was 0.259 µM (active) in the experiment with COLO 205; 0.144 µM (active) in the experiment with HL-60; 1.79 µM (inactive) in the experiment on 786-0; 1.67 µM (inactive) with U-251; 0.984 µM (active) in the experiment with NCI-H23; 1.39 µM (inactive) with BT-549.
For the compound `COc1ccc(O)c(/C(C)=N/NC(=S)N(C)C)c1`, the GI50 was 57.7 µM (inactive) in the experiment with MDA-MB-435; 37.3 µM (inactive) in the experiment with OVCAR-3; 40.9 µM (inactive) in the experiment with T47D; 40.5 µM (inactive) in the experiment on SNB-19; 64 µM (inactive) in the experiment with SF-539; > 20.6 µM (inactive) in the experiment with MDA-MB-231. Also, the GI50 with LOX IMVI was 4.48 µM (inactive); in the experiment on HT-29 it was 0.0306 µM (active); in the experiment on KM12, 42 µM (inactive); in the experiment with K562, 60.1 µM (inactive); with MOLT-4, 36.5 µM (inactive); in the experiment on HCC 2998, > 61.9 µM (inactive). In addition, the GI50 is 21.3 µM (inactive) with COLO 205; > 43.2 µM (inactive) in the experiment on SK-MEL-2; 56 µM (inactive) with HL-60; > 40.7 µM (inactive) with 786-0; > 36.6 µM (inactive) in the experiment with U-251; 24.7 µM (inactive) with NCI-H23. In the experiment with BT-549, the GI50 is 36 µM (inactive).
For `CCCCN(CCCC)CC(O)c1cc(-c2ccc(C(F)(F)F)cc2)nc(-c2ccc(C(F)(F)F)cc2)c1` (stereo not drawn), the GI50 was 59.6 µM (inactive) in the experiment with MDA-MB-435; > 10 µM (inactive) in the experiment on MCF7; 94.8 µM (inactive) in the experiment with OVCAR-3; 34.4 µM (inactive) with T47D; > 100 µM (inactive) in the experiment with SNB-19; > 100 µM (inactive) in the experiment on SF-539. Besides, the GI50 in the experiment on MDA-MB-231 is 15.7 µM (inactive); in the experiment on LOX IMVI, 35 µM (inactive); with HT-29, > 100 µM (inactive); in the experiment on K562, 76.2 µM (inactive); with MOLT-4, > 100 µM (inactive); with HCC 2998, 22.6 µM (inactive). For the same compound, the GI50 in the experiment with COLO 205 is 79.8 µM (inactive); with SK-MEL-2, > 100 µM (inactive); in the experiment on HL-60 it was 32 µM (inactive); in the experiment with 786-0, 61.1 µM (inactive); in the experiment with U-251, > 100 µM (inactive); in the experiment with NCI-H23 it was > 100 µM (inactive).
As to `c1csc(-c2nn3c(C45CC6CC(CC(C6)C4)C5)nnc3s2)c1`, the GI50 in the experiment on MDA-MB-435, in the experiment with OVCAR-3, in the experiment with T47D, in the experiment on SNB-19, in the experiment with SF-539 and with MDA-MB-231 was > 100 µM (inactive) throughout. The GI50 in the experiment on LOX IMVI, in the experiment with HT-29, in the experiment with K562, in the experiment with MOLT-4, with HCC 2998 and with COLO 205 was > 100 µM (inactive) in each case. In addition, the GI50 with SK-MEL-2, with HL-60, in the experiment on 786-0, in the experiment on U-251 and with NCI-H23 was > 100 µM (inactive) throughout.
As to `CC12C(=O)CC(CC1=O)C2(C)C`, the GI50 in the experiment with MCF7, in the experiment with OVCAR-3, with T47D, in the experiment on SNB-19, in the experiment with LOX IMVI and in the experiment with HT-29 was > 100 µM (inactive) throughout. The GI50 with KM12, with K562, with MOLT-4, in the experiment on COLO 205, with SK-MEL-2 and with HL-60 was > 100 µM (inactive) throughout. Further, the GI50 in the experiment on 786-0 and with BT-549 was > 100 µM (inactive) in each case.
Turning to `C=CCC1NCCC2=C1C(S(=O)(=O)c1ccc(C)cc1)c1ccccc12` (stereo not drawn), the GI50 was 5.47 µM (inactive) in the experiment on MDA-MB-435; 7.13 µM (inactive) in the experiment on MCF7; 12.5 µM (inactive) in the experiment with OVCAR-3; 10.4 µM (inactive) in the experiment on T47D; 16.5 µM (inactive) in the experiment on SNB-19; 12.1 µM (inactive) in the experiment on MDA-MB-231. Besides, the GI50 with LOX IMVI is 8.91 µM (inactive); in the experiment with HT-29, 16 µM (inactive); in the experiment with KM12, 9.46 µM (inactive); in the experiment with K562, 5.62 µM (inactive); in the experiment on MOLT-4, 6.56 µM (inactive); in the experiment with HCC 2998, 1.85 µM (inactive). Besides, the GI50 in the experiment with COLO 205 was 2 µM (inactive); in the experiment on SK-MEL-2 it was 13.5 µM (inactive); in the experiment with 786-0, 12.9 µM (inactive); with U-251, 11.5 µM (inactive); with NCI-H23, 18 µM (inactive).
For the compound `Oc1ccc2ccccc2c1/N=N/c1ccc(/N=N/c2ccccc2)cc1`, the GI50 with MDA-MB-435 is 64.1 µM (inactive); in the experiment on OVCAR-3 it was > 100 µM (inactive); in the experiment on T47D, > 100 µM (inactive); with SNB-19, > 100 µM (inactive); in the experiment with MDA-MB-231 it was 89.1 µM (inactive); in the experiment on LOX IMVI it was > 100 µM (inactive). The GI50 was > 100 µM (inactive) in the experiment on HT-29; 84.9 µM (inactive) with KM12; > 100 µM (inactive) in the experiment on K562; > 100 µM (inactive) in the experiment with MOLT-4; > 100 µM (inactive) in the experiment on COLO 205; > 100 µM (inactive) with SK-MEL-2. In addition, the GI50 was 0.43 µM (active) with HL-60; > 100 µM (inactive) in the experiment on 786-0; 46.3 µM (inactive) with U-251; > 100 µM (inactive) in the experiment on NCI-H23; > 100 µM (inactive) in the experiment on BT-549.
Regarding `CCC(=O)N(c1ccccc1)C(C)CN1CCC(O)(c2cccc(C(F)(F)F)c2)CC1` (stereo not drawn), the GI50 with MDA-MB-435 is 20.2 µM (inactive); with OVCAR-3 it was 45.6 µM (inactive); in the experiment on T47D it was 33.7 µM (inactive); with SNB-19, > 100 µM (inactive); in the experiment with SF-539, 23.2 µM (inactive); in the experiment on MDA-MB-231, 21.6 µM (inactive). Also, the GI50 in the experiment on LOX IMVI is 18.9 µM (inactive); with HT-29, 13 µM (inactive); in the experiment on KM12, 35.2 µM (inactive); with K562, 20.9 µM (inactive); in the experiment with MOLT-4, 17.9 µM (inactive); with HCC 2998, 26.5 µM (inactive). For the same compound, the GI50 in the experiment with COLO 205 is 14.7 µM (inactive); in the experiment with SK-MEL-2 it was 20.9 µM (inactive); with HL-60 it was 17.8 µM (inactive); in the experiment on 786-0 it was 18.5 µM (inactive); in the experiment with U-251, 37.2 µM (inactive); with NCI-H23, 21.4 µM (inactive).
As for `O=C1Nc2ccccc2/C1=N/Nc1nc(-c2ccc(Cl)c(Cl)c2)cs1`, the GI50 in the experiment with MDA-MB-435 was 72.1 µM (inactive); in the experiment on MCF7, 37.2 µM (inactive); in the experiment with OVCAR-3, 4.75 µM (inactive); in the experiment on T47D it was 26 µM (inactive); in the experiment on SNB-19, > 100 µM (inactive); with SF-539 it was 73.5 µM (inactive). Further, the GI50 was > 100 µM (inactive) with MDA-MB-231; > 100 µM (inactive) in the experiment on LOX IMVI; 56 µM (inactive) in the experiment with HT-29; 29.6 µM (inactive) in the experiment with KM12; 16 µM (inactive) in the experiment on MOLT-4; > 100 µM (inactive) in the experiment on HCC 2998. The GI50 in the experiment with COLO 205 was 29.9 µM (inactive); in the experiment with SK-MEL-2 it was 43 µM (inactive); with HL-60, 0.232 µM (active); in the experiment on 786-0 it was > 100 µM (inactive); in the experiment on U-251 it was 77.4 µM (inactive); in the experiment with NCI-H23, 46.1 µM (inactive).
